Reference: US11186564B2, “Dual NAV1.2/5HT2a inhibitors for treating CNS disorders” (Sunovion Pharmaceuticals Inc., priority 2016, dated 2021)
Structures can show the parent of a compound that is named as a salt.

Key:
[1] = target: T1, recombinant human serotonin receptor 5-HT2A (Homo sapiens, UniProt P28223); experiment: 5-HT2A antagonist Ca2+ assay in CHO-K1 cells (method A aequorin luminescence / method B FLIPR fluorescence); format: cell-based; conditions: antagonist mode vs EC80 of reference agonist, method A or B, read-out: 5HT2A IC50
T1 construct: expressed in transfected cells; method B: loaded with Ca2+ dye
How it was run: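 Method A: CHO-K1 cells co-expressing human 5-HT2A and mitochondrial apoaequorin were given reference agonist at EC80 15 min after compound, with luminescence read. Method B: dye-loaded 5-HT2A CHO-K1 cells were pretreated with compound, then given serotonin at EC80, with FLIPR fluorescence read. IC50s came from nonlinear fits of percent inhibition.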

[2] = target: human sodium channel NaV1.2 (Homo sapiens, UniProt Q99250); experiment: NaV1.2 inhibition, automated patch-clamp (Q-Patch HTX), slow inactivated state (state C); format: cell-based; conditions: hNaV1.2 CHO cells, slow inactivated state; for inhibition at 1 µM: 1 μM compound, read-out: NaV1.2 (% inh), 1 μM; for IC50: read-out: NaV1.2 IC50
How it was run: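 CHO K-1 cells stably expressing human NaV1.2, whole-cell automated patch clamp, holding −100 mV; slow-inactivated state (state C) read at a 5 ms step to 0 mV after 10 s at −50 mV and 15 ms at −90 mV. Percent inhibition vs vehicle; IC50 by nonlinear least-squares fit.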

Chain of human sodium channel NaV1.2 (Q99250 whole entry): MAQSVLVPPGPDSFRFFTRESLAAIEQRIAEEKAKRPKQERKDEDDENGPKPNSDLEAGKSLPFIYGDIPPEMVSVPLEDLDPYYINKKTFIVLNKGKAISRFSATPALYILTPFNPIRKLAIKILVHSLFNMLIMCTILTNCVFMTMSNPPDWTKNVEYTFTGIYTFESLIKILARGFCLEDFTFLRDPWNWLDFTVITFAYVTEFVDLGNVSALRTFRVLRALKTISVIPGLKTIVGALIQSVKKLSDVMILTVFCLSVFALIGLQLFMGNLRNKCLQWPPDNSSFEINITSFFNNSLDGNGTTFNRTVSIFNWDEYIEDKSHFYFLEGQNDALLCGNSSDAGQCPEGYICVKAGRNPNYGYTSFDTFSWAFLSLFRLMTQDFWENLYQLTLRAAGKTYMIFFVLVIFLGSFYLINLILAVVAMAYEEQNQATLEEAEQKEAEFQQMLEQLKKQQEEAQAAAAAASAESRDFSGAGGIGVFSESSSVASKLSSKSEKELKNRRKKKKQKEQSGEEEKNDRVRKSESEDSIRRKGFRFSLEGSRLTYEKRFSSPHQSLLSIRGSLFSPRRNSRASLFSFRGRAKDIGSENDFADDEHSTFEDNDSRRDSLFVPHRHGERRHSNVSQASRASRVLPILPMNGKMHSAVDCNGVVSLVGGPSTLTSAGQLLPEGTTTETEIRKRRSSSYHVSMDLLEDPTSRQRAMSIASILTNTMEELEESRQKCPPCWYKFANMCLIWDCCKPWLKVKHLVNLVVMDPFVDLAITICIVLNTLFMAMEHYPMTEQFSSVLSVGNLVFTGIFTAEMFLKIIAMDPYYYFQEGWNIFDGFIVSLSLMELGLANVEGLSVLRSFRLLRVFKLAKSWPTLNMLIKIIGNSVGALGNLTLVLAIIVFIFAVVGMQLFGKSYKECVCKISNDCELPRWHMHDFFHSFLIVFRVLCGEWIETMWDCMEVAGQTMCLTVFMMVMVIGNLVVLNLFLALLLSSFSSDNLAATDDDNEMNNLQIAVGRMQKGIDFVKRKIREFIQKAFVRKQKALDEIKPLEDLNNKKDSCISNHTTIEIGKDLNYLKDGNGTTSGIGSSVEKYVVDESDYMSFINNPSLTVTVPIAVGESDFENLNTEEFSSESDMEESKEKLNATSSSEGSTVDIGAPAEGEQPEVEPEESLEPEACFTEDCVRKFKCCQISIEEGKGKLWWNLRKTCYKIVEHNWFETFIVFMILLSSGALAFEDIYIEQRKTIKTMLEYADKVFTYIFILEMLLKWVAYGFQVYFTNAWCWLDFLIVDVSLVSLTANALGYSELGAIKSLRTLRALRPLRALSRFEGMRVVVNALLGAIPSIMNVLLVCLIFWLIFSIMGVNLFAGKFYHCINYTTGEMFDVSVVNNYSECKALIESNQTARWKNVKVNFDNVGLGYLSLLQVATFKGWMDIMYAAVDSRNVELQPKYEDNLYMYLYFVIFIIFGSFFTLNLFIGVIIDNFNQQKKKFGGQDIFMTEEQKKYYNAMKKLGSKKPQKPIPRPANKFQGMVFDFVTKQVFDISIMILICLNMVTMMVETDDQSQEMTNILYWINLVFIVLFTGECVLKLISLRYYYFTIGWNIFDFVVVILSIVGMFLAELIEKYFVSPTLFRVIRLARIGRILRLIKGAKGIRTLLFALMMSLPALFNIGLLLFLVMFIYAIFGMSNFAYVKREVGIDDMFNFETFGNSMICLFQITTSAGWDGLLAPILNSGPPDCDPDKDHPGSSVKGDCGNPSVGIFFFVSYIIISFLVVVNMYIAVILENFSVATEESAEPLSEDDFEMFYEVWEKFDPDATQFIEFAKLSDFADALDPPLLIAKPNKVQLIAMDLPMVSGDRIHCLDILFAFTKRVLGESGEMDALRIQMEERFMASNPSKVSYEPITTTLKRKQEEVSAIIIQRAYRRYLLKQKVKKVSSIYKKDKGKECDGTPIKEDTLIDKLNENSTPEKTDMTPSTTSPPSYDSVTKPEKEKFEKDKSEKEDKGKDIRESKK
T1 sequence (P28223 whole entry): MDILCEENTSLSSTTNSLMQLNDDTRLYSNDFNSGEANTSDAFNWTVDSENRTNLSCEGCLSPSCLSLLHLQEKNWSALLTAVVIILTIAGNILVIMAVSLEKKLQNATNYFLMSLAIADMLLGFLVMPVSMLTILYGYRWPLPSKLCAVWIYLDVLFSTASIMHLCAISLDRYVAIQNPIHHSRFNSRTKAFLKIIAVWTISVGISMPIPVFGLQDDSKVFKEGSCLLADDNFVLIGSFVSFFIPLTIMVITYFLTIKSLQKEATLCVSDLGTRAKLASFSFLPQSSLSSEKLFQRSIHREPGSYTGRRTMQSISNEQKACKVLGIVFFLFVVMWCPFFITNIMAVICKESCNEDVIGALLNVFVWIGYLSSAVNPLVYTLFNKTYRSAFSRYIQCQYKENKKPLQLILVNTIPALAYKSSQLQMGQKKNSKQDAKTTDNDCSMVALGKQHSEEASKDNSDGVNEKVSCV

Structure (SMILES) | IC50 [1] | inhibition at 1 µM [2] | IC50 [2] | inhibition at 10 µM ([2]; 10 μM compound, read-out: NaV1.2 (% inh), 10 μM)
COc1ccc2c(c1)C(CN1CCC(Oc3ccccc3C#N)CC1)CC2 (stereo not shown) [Example 98, 2-((1-((6-methoxy-2,3-dihydro-1H-inden-1-yl)methyl)piperidin-4-yl)oxy)benzonitrile] | 10 nM | 37% |  | 
COc1ccccc1OC1CCN(CC2c3ccccc3CC2(C)C)CC1 (stereo not shown) [Example 100] | 710 nM |  | 2600 nM | 
COc1ccccc1OC1CCN(CC2c3ccccc3CC2C)CC1 (stereo not shown) [Example 101, 4-(2-methoxyphenoxy)-1-((2-methyl-2,3-dihydro-1H-inden-1-yl)methyl)piperidine] | 80 nM |  | 370 nM | 
COc1ccc2c(c1)C(CN1CC[C@@H](Oc3ccccc3OC)C[C@@H]1C)CC2 (stereo partly drawn) [Example 102, (2S,4R)-1-((6-methoxy-2,3-dihydro-1H-inden-1-yl)methyl)-4-(2-methoxyphenoxy)-2-methylpiperidine] | 150 nM | 82% |  | 
COc1ccccc1OC1CCN(CC2CCc3ccccc32)CC1(C)C (stereo not shown) [Example 103, 1-((2,3-dihydro-1H-inden-1-yl)methyl)-4-(2-methoxyphenoxy)-3,3-dimethylpiperidine] | 220 nM |  | 3130 nM | 
COc1ccc2c(c1)C(CN1CC[C@H](Oc3ccccc3OC)C[C@@H]1C)CC2 (stereo partly drawn) [Example 104, (2S,4S)-1-((6-methoxy-2,3-dihydro-1H-inden-1-yl)methyl)-4-(2-methoxyphenoxy)-2-methylpiperidine] | 260 nM | 46% |  | 
c1ccc(OC2CCN(CC3CCc4ccccc43)CC2)cc1 (stereo not shown) [Example 106, 1-((2,3-dihydro-1H-inden-1-yl)methyl)-4-phenoxypiperidine] | 10 nM |  | > 10000 nM | 
COc1ccc2c(c1)C(CN1CCC(Oc3ccccc3)CC1)CC2 (stereo not shown) [Example 107, 1-((6-methoxy-2,3-dihydro-1H-inden-1-yl)methyl)-4-phenoxypiperidine] | 4 nM |  | 1990 nM | 
Fc1ccc(OC2CCN(CC3CCc4ccccc43)CC2)cc1 (stereo not shown) [Example 112, 1-((2,3-dihydro-1H-inden-1-yl)methyl)-4-(4-fluorophenoxy)piperidine] | 4 nM |  | 1440 nM | 
COc1ccc2c(c1)C(CN1CCC(Oc3ccc(F)cc3)CC1)CC2 (stereo not shown) [Example 113, 4-(4-fluorophenoxy)-1-((6-methoxy-2,3-dihydro-1H-inden-1-yl)methyl)piperidine hydrochloride] | 2 nM |  | 550 nM | 
NCCOc1ccc2c(c1)C(CN1CCC(Oc3ccc(F)cc3)CC1)CC2 (stereo not shown) [Example 114, 2-((3-((4-(4-fluorophenoxy)piperidin-1-yl)methyl)-2,3-dihydro-1H-inden-5-yl)oxy)ethan-1-amine] | 70 nM |  |  | 52%
Nc1ccc2c(c1)C(CN1CCC(Oc3ccc(F)cc3)CC1)CC2 (stereo not shown) [Example 115, 3-((4-(4-fluorophenoxy)piperidin-1-yl)methyl)-2,3-dihydro-1H-inden-5-amine] | < 1 nM |  | 2580 nM | 
CN(C)c1ccc2c(c1)C(CN1CCC(Oc3ccc(F)cc3)CC1)CC2 (stereo not shown) [Example 116, 3-((4-(4-fluorophenoxy)piperidin-1-yl)methyl)-N,N-dimethyl-2,3-dihydro-1H-inden-5-amine] | 10 nM |  | 2340 nM | 
COc1ccc2c(c1)C(CN1CCC(Oc3ccncc3)CC1)CC2 (stereo not shown) [Example 117, 4-((1-((6-methoxy-2,3-dihydro-1H-inden-1-yl)methyl)piperidin-4-yl)oxy)pyridine] | 580 nM | 1% |  | 
Fc1ccc(OC2CCN(CC3CCc4cccc(F)c43)CC2)cc1 (stereo not shown) [Example 119, 1-((7-fluoro-2,3-dihydro-1H-inden-1-yl)methyl)-4-(4-fluorophenoxy)piperidine] | 20 nM |  | 180 nM | 
N#Cc1ccc2c(c1)CCC2CN1CCC(Oc2ccc(F)cc2)CC1 (stereo not shown) [Example 121] | 70 nM |  | 2090 nM | 
N#Cc1cccc2c1CCC2CN1CCC(Oc2ccc(F)cc2)CC1 (stereo not shown) [Example 122, 1-((4-(4-fluorophenoxy)piperidin-1-yl)methyl)-2,3-dihydro-1H-indene-4-carbonitrile] | 90 nM |  | 110 nM | 
